Data published in patent US4247535A, “Modified cyclodextrin sulfate salts as complement inhibitors” (American Cyanamid Company, priority 1979, dated 1981).
Structures can show the parent of a compound that is named as a salt.

Key:
shunt pathway = assay: Test Code 036 (C-Shunt inhibitor), lysis of fragile human erythrocytes in autologous serum, cobra venom factor; type: cell-based; conditions: activity in wells, twofold serial dilution assay; higher well number = higher activity
Text: (§1) An active inhibitor protects C2 from C1 and C4; (ii) Test Code 035 (C3-C9 inhibitor)--This test determines the ability of the late components of human complement (C3-C9) to lyse EAC 142 in the presence of appropriate dilutions of the test compound. An active inhibitor protects EAC 142 from lysis by human C3-C9; (iii) Test Code 036 (C-Shunt inhibitor)--In this test human erythrocytes rendered fragile are lysed in autologous serum via the shunt pathway activated by cobra venom factor in the presence of appropriate dilutions of the test compound. Inhibition of the shunt pathway results in failure of lysis; (iv) Forssman Vasculitis Test--Here, the well known complement dependent lesion, Forssman vasculitis, is produced in guinea pigs by intradermal injection of rabbit anti-Forssman antiserum. […]

whole complement = assay: Complement Level Reduction Test (in vivo, capillary tube assay of serum); conditions: 200 mg/kg i.v. or i.p.
Text: An active inhibitor protects C2 from C1 and C4; (ii) Test Code 035 (C3-C9 inhibitor)--This test determines the ability of the late components of human complement (C3-C9) to lyse EAC 142 in the presence of appropriate dilutions of the test compound. An active inhibitor protects EAC 142 from lysis by human C3-C9; (iii) Test Code 036 (C-Shunt inhibitor)--In this test human erythrocytes rendered fragile are lysed in autologous serum via the shunt pathway activated by cobra venom factor in the presence of appropriate dilutions of the test compound. Inhibition of the shunt pathway results in failure of lysis; (iv) Forssman Vasculitis Test--Here, the well known complement dependent lesion, Forssman vasculitis, is produced in guinea pigs by intradermal injection of rabbit anti-Forssman antiserum. The lesion is measured in terms of diameter, edema and hemorrhage and the extent to which a combined index of these is inhibited by prior intraperitoneal injection of the test compound at 200 mg/kg is then reported, unless otherwise stated; (v) Forssman Shock Test--Lethal shock is produced in guinea pigs by an i.v. injection of anti-Forssman antiserum and the harmonic mean death time of treated guinea pigs is compared with that of simultaneous controls; (vi) Complement Level Reduction Test--In this test, the above dosed guinea pigs, or others, are bled for serum and the complement level is determined in undiluted serum by the capillary tube method of U.S. Pat. No. 3,876,376 and compared to undosed control guinea pigs; and (vii) Cap 50 Test--Here, appropriate amounts of the test compound are added to a pool of guinea pig serum in vitro, after which the undiluted serum capillary tube assay referred to above is run. The concentration of compound inhibiting 50% is reported.
With reference to Table I, guinea pigs weighing about 300 g were dosed intravenously (i.v.) or intraperitoneally (i.p.) with 200 mg/kg of the test compound dissolved in saline and adjusted to pH 7-8. […] Percent inhibition was calculated by comparison with simultaneous controls. […]

activated human C1 = activated human C1 (Homo sapiens, UniProt P09871); assay: Test Code 026 (C1 inhibitor); type: biochemical; conditions: activity in wells, twofold serial dilution assay; higher well number = higher activity
Sequence of activated human C1 (P09871 16-688): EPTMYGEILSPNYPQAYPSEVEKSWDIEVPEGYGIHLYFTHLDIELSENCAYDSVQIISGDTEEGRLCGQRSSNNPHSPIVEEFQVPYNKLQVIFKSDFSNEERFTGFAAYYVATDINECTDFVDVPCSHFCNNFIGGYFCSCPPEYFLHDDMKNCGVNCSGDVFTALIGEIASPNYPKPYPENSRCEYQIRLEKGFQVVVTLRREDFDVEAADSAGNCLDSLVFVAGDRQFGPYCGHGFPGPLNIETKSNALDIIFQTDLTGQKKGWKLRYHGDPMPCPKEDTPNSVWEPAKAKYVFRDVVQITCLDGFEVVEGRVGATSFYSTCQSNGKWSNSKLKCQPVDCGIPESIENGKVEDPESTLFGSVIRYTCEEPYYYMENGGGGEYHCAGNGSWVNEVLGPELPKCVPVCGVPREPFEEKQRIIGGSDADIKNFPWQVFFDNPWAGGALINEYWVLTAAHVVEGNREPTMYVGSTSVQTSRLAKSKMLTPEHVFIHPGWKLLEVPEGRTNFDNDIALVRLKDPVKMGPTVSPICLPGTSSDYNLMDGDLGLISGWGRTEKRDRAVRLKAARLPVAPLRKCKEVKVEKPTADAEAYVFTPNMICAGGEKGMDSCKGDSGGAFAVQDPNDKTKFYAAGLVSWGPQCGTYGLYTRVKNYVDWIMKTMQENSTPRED
Sequence of activated human C1 (P00736 18-705 partner): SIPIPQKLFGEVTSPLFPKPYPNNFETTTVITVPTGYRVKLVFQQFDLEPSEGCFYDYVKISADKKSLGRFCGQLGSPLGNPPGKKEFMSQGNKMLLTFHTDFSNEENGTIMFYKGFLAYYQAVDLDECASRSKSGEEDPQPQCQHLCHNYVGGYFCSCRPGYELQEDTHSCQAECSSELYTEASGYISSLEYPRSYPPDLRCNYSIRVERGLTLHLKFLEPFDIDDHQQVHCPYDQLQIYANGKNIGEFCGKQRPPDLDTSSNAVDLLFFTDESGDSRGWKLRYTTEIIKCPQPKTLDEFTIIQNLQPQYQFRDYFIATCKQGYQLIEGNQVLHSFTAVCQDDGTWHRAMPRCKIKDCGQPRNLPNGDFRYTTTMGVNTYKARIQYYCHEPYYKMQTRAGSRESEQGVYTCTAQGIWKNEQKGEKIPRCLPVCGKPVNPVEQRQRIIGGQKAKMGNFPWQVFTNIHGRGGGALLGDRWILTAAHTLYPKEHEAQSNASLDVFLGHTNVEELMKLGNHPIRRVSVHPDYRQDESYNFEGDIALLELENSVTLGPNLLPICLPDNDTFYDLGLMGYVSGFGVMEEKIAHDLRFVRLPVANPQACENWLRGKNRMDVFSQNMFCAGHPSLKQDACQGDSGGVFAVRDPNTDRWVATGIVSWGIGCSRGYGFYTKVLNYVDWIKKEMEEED
Sequence of activated human C1 (P02745 23-245 partner): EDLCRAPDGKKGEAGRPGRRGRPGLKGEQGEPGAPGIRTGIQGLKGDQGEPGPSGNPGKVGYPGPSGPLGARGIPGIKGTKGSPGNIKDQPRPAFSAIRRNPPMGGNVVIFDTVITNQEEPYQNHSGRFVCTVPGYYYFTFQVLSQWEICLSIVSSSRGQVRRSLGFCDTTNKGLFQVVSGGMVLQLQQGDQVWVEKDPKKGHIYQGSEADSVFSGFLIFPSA
Sequence of activated human C1 (P02746 28-253 partner): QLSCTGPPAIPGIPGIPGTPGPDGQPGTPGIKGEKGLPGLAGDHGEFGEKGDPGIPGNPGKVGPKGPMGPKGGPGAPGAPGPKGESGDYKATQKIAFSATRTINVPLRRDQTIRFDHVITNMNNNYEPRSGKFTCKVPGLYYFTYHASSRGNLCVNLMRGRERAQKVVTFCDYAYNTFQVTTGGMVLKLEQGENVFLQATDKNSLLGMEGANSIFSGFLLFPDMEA
Sequence of activated human C1 (P02747 29-245 partner): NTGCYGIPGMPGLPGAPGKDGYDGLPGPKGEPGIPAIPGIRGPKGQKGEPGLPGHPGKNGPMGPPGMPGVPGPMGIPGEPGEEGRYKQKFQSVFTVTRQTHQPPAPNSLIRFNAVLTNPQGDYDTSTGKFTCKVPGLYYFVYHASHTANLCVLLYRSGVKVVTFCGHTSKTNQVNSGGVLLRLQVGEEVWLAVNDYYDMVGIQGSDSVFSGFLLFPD
Text: as §1

[1] = tested on: late components of human complement (C3-C9); assay: Test Code 035 (C3-C9 inhibitor), lysis of EAC 142; type: biochemical; conditions: activity in wells, twofold serial dilution assay; higher well number = higher activity
Text: as §1

complement system = conditions: reported, British Journal of Experimental Pathology, 33, 327-339 (1952); cited from earlier work
[2] = tested on: hereditary angioneurotic edema; conditions: reported in the literature; cited from earlier work
human serum = conditions: both in vitro and in vivo, judged by reduction in total hemolytic complement activity; cited from earlier work

## O=C(O)[C@H]1O[C@@H]2O[C@H]3[C@H](OS(=O)(=O)O)[C@@H](OS(=O)(=O)O)[C@@H](O[C@H]4[C@H](OS(=O)(=O)O)[C@@H](OS(=O)(=O)O)[C@@H](O[C@H]5[C@H](OS(=O)(=O)O)[C@@H](OS(=O)(=O)O)[C@@H](O[C@H]6[C@H](OS(=O)(=O)O)[C@@H](OS(=O)(=O)O)[C@@H](O[C@H]7[C@H](OS(=O)(=O)O)[C@@H](OS(=O)(=O)O)[C@@H](O[C@H]8[C@H](OS(=O)(=O)O)[C@@H](OS(=O)(=O)O)[C@@H](O[C@H]1[C@H](OS(=O)(=O)O)[C@H]2OS(=O)(=O)O)O[C@@H]8C(=O)O)O[C@@H]7C(=O)O)O[C@@H]6C(=O)O)O[C@@H]5C(=O)O)O[C@@H]4C(=O)O)O[C@@H]3C(=O)O [5,5',5",5'",5"",5'"",5"""-Heptacarboxy-6,6',6",6'",6"",6'"",6"""-heptademethyl-β-cyclodextrin, heptasodium salt, tetradecakis (H-sulfate), tetradecasodium salt]
Shunt pathway
  036 In Vitro Activity: +3 wells
Whole complement; 30 min.
  In Vivo Activity (Guinea Pig) % Inhibition 30 min.: -18%
Whole complement; 60 min.
  In Vivo Activity (Guinea Pig) % Inhibition 60 min.: +14%
Whole complement; 120 min.
  In Vivo Activity (Guinea Pig) % Inhibition 120 min.: -40%
Activated human C1
  026 In Vitro Activity: +7 wells
[1]
  035 In Vitro Activity: +1 wells

## O=C(O)[C@H]1O[C@@H]2O[C@H]3[C@H](O)[C@@H](O)[C@@H](O[C@H]4[C@H](O)[C@@H](O)[C@@H](O[C@H]5[C@H](O)[C@@H](O)[C@@H](O[C@H]6[C@H](O)[C@@H](O)[C@@H](O[C@H]7[C@H](O)[C@@H](O)[C@@H](O[C@H]8[C@H](O)[C@@H](O)[C@@H](O[C@H]1[C@H](O)[C@H]2O)O[C@@H]8C(=O)O)O[C@@H]7C(=O)O)O[C@@H]6C(=O)O)O[C@@H]5C(=O)O)O[C@@H]4C(=O)O)O[C@@H]3C(=O)O [5,5',5",5'",5"",5'"",5"""-Heptacarboxy-6,6',6",6'",6"",6'"",] [5,5',5",5'",5"",5'"",5"""-Heptacarboxy-6,6',6",6'",6"",6'"",6"""-heptademethyl-β-cyclodextrin]
[1]
  035 In Vitro Activity: N

## Nc1ccc2cc(S(=O)(=O)O)cc(O)c2c1N=Nc1ccc(NC(=O)Nc2ccc(N=Nc3c(N)ccc4cc(S(=O)(=O)O)cc(O)c34)c(S(=O)(=O)O)c2)cc1S(=O)(=O)O [chlorazol fast pink, 3,3'-ureylenebis-[6-(2-amino-8-hydroxy-6-sulfo-1-naphthylazo)]benzenesulfonic acid, tetrasodium salt]
Complement system
  anticomplementary effect: anticomplementary effect

## NCCCCCC(=O)O [epsilon-aminocaproic acid]
[2]
  treatment of hereditary angioneurotic edema: used with success

## NC[C@H]1CC[C@H](C(=O)O)CC1 [tranexamic acid]
[2]
  treatment of hereditary angioneurotic edema: used with success

## heparin
Complement system
  anticomplementary effect: anticomplementary effect

## pentosan-polysulfoester
Human serum
  anticomplementary activity on human serum: anticomplementary activity
